Several values for one entry are separate records, joined by “and”; a condition that tells them apart may be missing. Equal entries are not always repeated.
Key:
[1] = Acute toxicity in mice (DL50), peroral; conditions: mouse, in vivo, po, mortality over 48 hours
Procedure: The acute toxicity is evaluated according to the mortality observed during a period of 48 hours on batches of four mice which have received perorally 100, 200, 400, 800 and 1600 mg/kg of the compound under study.

[2] = system: mice; test: Siegmund test with phenylbenzoquinone in mice; assay type: in vivo; conditions: Mus musculus, po, 1 h, peroral, one hour before phenylbenzoquinone i.p., read-out: DE50 (50% reduction in the number of contortions)
Procedure: This test has been performed in accordance with the method described by Siegmund, Cadmus and Lu ("A method for evaluating both non-narcotic and narcotic analgesics", Proc. Soc. Exp. Biol. Med., 1957, 95, 729-731).
(§1) One hour after peroral administration of the product under study to batches of twelve mice per dose, phenylbenzoquinone in solution in a proportion of 0.02% in water containing 5% ethyl alcohol is administered by intraperitoneal injection in a proportion of 0.25 ml per mouse of 20 g.
The dose DE50 (which produces a 50% reduction in the number of contortions with respect to the reference animals) is calculated on the basis of the dose/effect relation.

[3] = system: mice; test: Heating-plate test performed on mice (Eddy test); assay type: in vivo; conditions: peroral, one hour before test, plate at 56.5° C; for ED30: Mus musculus, po, 1 h, read-out: DE30 (30% increase in licking time)
Procedure: This test has been carried out in accordance with the method described by N. B. Eddy (J. Pharmacol: 1932, 45, 339-359).
One hour after the product under study has been administered perorally to batches of twelve mice per dose, the time taken by the mice to lick their front paws is measured, the mice having been placed on a plate heated to a temperature of 56.5° C.
The dose DE30 (which produces a 30% increase in licking time with respect to the reference animals) is calculated on the basis of the dose/effect relation.

[4] = system: mice; test: Antagonism produced by Naloxone in the Siegmund test; assay type: in vivo
Procedure: as §1
The dose DE50 (which produces a 50% reduction in the number of contortions with respect to the reference animals) is calculated on the basis of the dose/effect relation. The following results are thus obtained:
This antagonism is sought in the Siegmund test performed on mice with phenylbenzoquinone as described earlier. Naloxone is administered by subcutaneous injection at a fixed dose at the same time as the product under study.

[5] = target: T1, guinea-pig ileum (Cavia porcellus, UniProt P31389); test: Antagonism with respect to histamine on isolated organ; assay type: cell-based; conditions: agonist histamine
T1 construct: the organ on which this action has been studied is the guinea-pig ileum; from tissue; host or cells: isolated guinea-pig ileum
Procedure: (§2) These interactions are sought on isolated organs which are maintained in a state of survival in a nutrient liquid. The contractions of these organs are recorded on a kymograph by means of an isotonic mechanism.
(§3) An agonist is added to the nutrient liquid bath, either alone or after addition of an antagonist, to increasing concentrations which serve to plot cumulative dose-response curves.
In this test, the organ on which this action has been studied is the guinea-pig ileum. The nutrient liquid employed is Tyorode, the agonist is histamine and the antagonist is the product under study.

[6] = target: T2, rat fundus (Rattus norvegicus, UniProt P30994); test: Antagonism with respect to serotonin on isolated organ; assay type: cell-based; conditions: for nature of antagonism with respect to serotonin: rat fundus, agonist serotonin
T2 construct: The organ under study is the rat fundus; from tissue; host or cells: isolated rat fundus
Procedure: as §2, §3
The organ under study is the rat fundus, the nutrient liquid employed is Kreps liquid, the agonist is serotonin and the antagonist is the product under study.

[7] = system: rat fundus; test: Agonism on the rat fundus; assay type: cell-based; conditions: product under study as agonist
Procedure: as §2, §3
The organ under study is the rat fundus, the nutrient liquid is the Kreps liquid and the agonist is the product under study.

[8] = system: rat fundus; test: Antagonism produced by harmine on rat fundus; assay type: cell-based; conditions: product as agonist, harmine as antagonist
Procedure: as §2, §3
The organ studied in this case is the rat fundus the nutrient liquid is the Kreps liquid, the agonist corresponds to the product under study and the antagonist is harmine.

[9] = target: morphine-compound cerebral receptors; test: Fixation on morphine-compound cerebral receptors (displacement of tritiated etorphin); assay type: binding; conditions: rat-brain homogenate, 1 mg/ml protein, 30 minutes at 35° C; read-out: CI50 (displacement of tritiated etorphin)
Procedure: It is sought to determine the affinity of the products under study by means of their capacity for displacement of tritiated etorphin in a rat-brain homogenate (containing 1 mg/ml of protein) over a period of 30 minutes at 35° C. This test consists in determining the value CI50 corresponding to the concentration of products which are capable of inhibiting 50% of the specific radioactive ligand bond.

T2 sequence (P30994 whole entry): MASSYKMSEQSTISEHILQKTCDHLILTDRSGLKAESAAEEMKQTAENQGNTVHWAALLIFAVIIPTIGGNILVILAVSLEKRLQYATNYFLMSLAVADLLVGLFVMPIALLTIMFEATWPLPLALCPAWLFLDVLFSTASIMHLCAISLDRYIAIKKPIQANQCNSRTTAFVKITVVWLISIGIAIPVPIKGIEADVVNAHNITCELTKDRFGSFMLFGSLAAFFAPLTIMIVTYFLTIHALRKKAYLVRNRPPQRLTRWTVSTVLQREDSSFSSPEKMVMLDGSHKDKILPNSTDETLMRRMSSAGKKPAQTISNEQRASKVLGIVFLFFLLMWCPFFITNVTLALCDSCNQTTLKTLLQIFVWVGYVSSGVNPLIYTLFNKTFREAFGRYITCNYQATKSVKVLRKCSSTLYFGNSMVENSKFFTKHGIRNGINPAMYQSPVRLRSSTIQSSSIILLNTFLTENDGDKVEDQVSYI
T1 sequence (P31389 whole entry): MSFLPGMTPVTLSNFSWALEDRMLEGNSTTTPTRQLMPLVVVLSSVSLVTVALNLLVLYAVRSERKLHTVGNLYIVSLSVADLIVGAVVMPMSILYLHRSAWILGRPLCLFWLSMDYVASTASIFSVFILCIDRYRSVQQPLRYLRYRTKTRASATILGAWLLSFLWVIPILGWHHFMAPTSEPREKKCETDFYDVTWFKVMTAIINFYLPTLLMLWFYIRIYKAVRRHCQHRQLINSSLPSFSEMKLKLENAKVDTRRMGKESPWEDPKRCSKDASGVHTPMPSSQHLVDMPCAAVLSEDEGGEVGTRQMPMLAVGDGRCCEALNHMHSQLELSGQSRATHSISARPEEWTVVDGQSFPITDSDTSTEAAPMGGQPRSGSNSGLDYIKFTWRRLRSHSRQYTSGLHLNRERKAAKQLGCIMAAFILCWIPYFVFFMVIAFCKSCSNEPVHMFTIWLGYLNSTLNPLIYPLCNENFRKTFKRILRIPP

SMILES	LD50 at 48 h [1]	ED50 [2]	ED30 [3]	DE30 (30% increase in licking time) [3]	antagonism of analgesic effect by Naloxone (conclusion) [4]	nature of antagonism with respect to histamine [5]	Kb [6]	nature of antagonism with respect to serotonin [6]	affinity parameter (pD2) as agonist [7]	nature of antagonism by harmine with respect to the product [8]	IC50 [9]	affinity parameter (pA2) with respect to histamine [5]
CC(=O)n1cc(N2CCN(Cc3ccccc3)CC2)c2ccccc21 [known compound, 1-acetyl-3-benzylpiperazino-indole]	3000 µmol/kg and 1000 mg/kg	55 µmol/kg and 18 mg/kg	13 mg/kg	40 micro-moles per kg	not antagonized	non-competitive antagonist	4.57 µM	competitive antagonist	5.4	non-competitive antagonism	103 µM	
c1ccc(CN2CCN(c3coc4ccccc34)CC2)cc1 [1-(3'-benzofuryl)-4-benzylpiperazine]	5500 µmol/kg and 1600 mg/kg	22 µmol/kg and 6.5 mg/kg	20 mg/kg	70 micro-moles per kg	antagonized by Naloxone	competitive antagonist		non-competitive antagonist	7.0	competitive antagonism	> 300 µM	5.99

— patent US4382935A, “Analgesic drug containing a derivative of benzylpiperazine” (Buzas; Andre, priority 1980, dated 1983)
